Reference: PubChem BioAssay (NCI)
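The compound was tested at five concentrations on cells cultured in 96-well plates, with a 48-hour exposure period. At the GI50, growth is halved. TGI marks complete inhibition of growth.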

Experiments:
Assay in all cases: NCI anticancer screen, dose series, 48 h
HCT-116 colon = tested on: HCT-116 colon
HCT-15 colon = tested on: HCT-15 colon
MCF7 breast = tested on: MCF7 breast
NCI-H226 lung = tested on: NCI-H226 lung
OVCAR-4 ovarian = tested on: OVCAR-4 ovarian
OVCAR-5 ovarian = tested on: OVCAR-5 ovarian
OVCAR-8 ovarian = tested on: OVCAR-8 ovarian
SK-MEL-2 melanoma = tested on: SK-MEL-2 melanoma
SK-MEL-5 melanoma = tested on: SK-MEL-5 melanoma
SR leukemia = tested on: SR leukemia
DU-145 prostate = tested on: DU-145 prostate

Compound	TGI (HCT-116 colon)	TGI (HCT-15 colon)	TGI (MCF7 breast)	TGI (NCI-H226 lung)	TGI (OVCAR-4 ovarian)	TGI (OVCAR-5 ovarian)	TGI (OVCAR-8 ovarian)	TGI (SK-MEL-2 melanoma)	TGI (SK-MEL-5 melanoma)	TGI (SR leukemia)	TGI (DU-145 prostate)	GI50 (HCT-116 colon)	GI50 (SK-MEL-5 melanoma)
N#Cc1c(O)c(/C=N/c2ncccn2)c(=O)n2c1[nH]c1ccccc12	> 100 µM	> 100 µM	> 100 µM	> 100 µM	> 100 µM	> 100 µM	> 100 µM	> 100 µM	> 100 µM	> 100 µM	–	–	–
COc1cccc(C2c3cc4c(cc3OC(Nc3ccccc3)C2C)OCO4)c1OC (configuration not stated)	> 100 µM	> 100 µM	> 100 µM	12.1 µM	–	> 100 µM	33.1 µM	> 100 µM	> 100 µM	11.2 µM	> 100 µM	–	–
CC[C@@]1(O)C(=O)OCc2c1cc1n(c2=O)Cc2c-1nc1ccccc1c2/C=N/NC(=O)c1ccc(N)cc1	12 µM	> 100 µM	> 100 µM	0.528 µM	> 100 µM	> 100 µM	> 100 µM	> 100 µM	1.1 µM	–	16.8 µM	–	–
COc1ccccc1C1c2cc3c(cc2OC(N2CCOCC2)C1C)OCO3 (configuration not stated)	26.2 µM	41.5 µM	81.5 µM	–	–	41.1 µM	> 100 µM	37.3 µM	31.2 µM	52.9 µM	51.4 µM	–	–
O=CN1CCN(C(=O)c2ccc(Cl)c(Cl)c2)C1=S	30.1 µM	43 µM	25 µM	39.8 µM	33.6 µM	32.4 µM	29.4 µM	30.6 µM	–	–	30.9 µM	–	–
CC(C)Oc1c(-c2ccc(F)cc2)c(O)c2c3c1oc(=O)n3C=CC2C (configuration not stated)	25.5 µM	29.7 µM	24.3 µM	26.9 µM	23.3 µM	62.2 µM	30.6 µM	53.3 µM	22.9 µM	–	51.6 µM	–	–
CC(C)N(C(C)C)S(=O)(=O)C[C@]12CC[C@H](CC13OCC(CS(=O)(=O)c1ccccc1)O3)C2(C)C (some centres not stated)	> 100 µM	> 100 µM	> 100 µM	> 100 µM	> 100 µM	> 100 µM	> 100 µM	> 100 µM	> 100 µM	–	> 100 µM	–	–
N#CNC(=NCCc1c[nH]c2ccccc12)Oc1ccccc1	> 100 µM	> 100 µM	–	> 100 µM	> 100 µM	> 100 µM	> 100 µM	–	> 100 µM	> 100 µM	–	–	–
c1ccc2c(c1)OC(N1CCCC1)c1cnc(N3CCOCC3)nc1-2 (configuration not stated)	> 100 µM	> 100 µM	38.2 µM	> 100 µM	> 100 µM	79.1 µM	> 100 µM	–	–	> 100 µM	> 100 µM	–	–
CCOC(=O)C(Cl)(NC(=O)OCc1ccccc1)C(F)(F)F (configuration not stated)	> 100 µM	> 100 µM	> 100 µM	> 100 µM	> 100 µM	> 100 µM	> 100 µM	> 100 µM	> 100 µM	–	> 100 µM	–	–
CCOC1CC(C)N(C(=O)c2ccccc2)O1 (configuration not stated)	> 100 µM	–	> 100 µM	> 100 µM	–	> 100 µM	> 100 µM	–	> 100 µM	> 100 µM	> 100 µM	–	–
COc1ccc(NC(=S)c2ccoc2C)cc1CC(=O)OC(C)C	> 100 µM	> 100 µM	51.5 µM	68 µM	> 100 µM	> 100 µM	> 100 µM	40.6 µM	> 100 µM	–	> 100 µM	–	–
Cc1n(Cc2ccccc2)nc2sc(N)n[n+]12	> 100 µM	> 100 µM	> 100 µM	> 100 µM	> 100 µM	> 100 µM	> 100 µM	> 100 µM	> 100 µM	–	> 100 µM	–	–
CC(Cl)CC(=O)OCC1CCCN2CCCCC12 (configuration not stated)	> 100 µM	> 100 µM	> 100 µM	> 100 µM	> 100 µM	> 100 µM	> 100 µM	> 100 µM	> 100 µM	–	> 100 µM	–	–
O=C(N/N=C(/COc1ccccc1)N=Cc1cccnc1)c1ccncc1	> 100 µM	> 100 µM	> 100 µM	> 100 µM	> 100 µM	> 100 µM	> 100 µM	> 100 µM	–	–	> 100 µM	–	–
Cc1cccc(N/C(Sc2ccccc2)=C(/C(Cl)=C(Cl)Cl)[N+](=O)[O-])c1	28.7 µM	29.4 µM	91.3 µM	35.2 µM	38.6 µM	40.8 µM	29.6 µM	> 100 µM	–	–	62.2 µM	–	–
CC1=C(C)SC(=C2Sc3nc(O)[nH]c(=O)c3S2)S1	> 100 µM	> 100 µM	> 100 µM	> 100 µM	> 100 µM	> 100 µM	> 100 µM	–	> 100 µM	79.9 µM	> 100 µM	–	–
Cn1cc(-c2csc(-c3cn(C)c4ccccc34)n2)c2ccccc21	> 100 µM	> 100 µM	> 100 µM	> 100 µM	> 100 µM	> 100 µM	> 100 µM	> 100 µM	> 100 µM	–	> 100 µM	–	–
Cc1cnc2[nH]c(-c3ccc4ccccc4c3)cc(=O)c2c1	14.5 µM	21.7 µM	8.68 µM	> 100 µM	> 100 µM	> 100 µM	> 100 µM	> 100 µM	> 100 µM	–	27.9 µM	0.465 µM	0.359 µM
Cn1c(N)nc(-c2ccc(Cl)cc2)c1SSc1c(-c2ccc(Cl)cc2)nc(N)n1C	13.4 µM	3.44 µM	–	83.5 µM	3.21 µM	3.26 µM	5.81 µM	32.1 µM	3.2 µM	–	25.4 µM	–	–
CN1CC2CN(Cc3ccccc3)CCN2c2cccnc21 (configuration not stated)	37.7 µM	> 100 µM	> 100 µM	> 100 µM	> 100 µM	> 100 µM	> 100 µM	> 100 µM	> 100 µM	> 100 µM	–	–	–
CC(Oc1ccc(OCC2CCCCC2)cc1)C(=O)NCc1ccco1 (configuration not stated)	76.3 µM	> 100 µM	–	94 µM	> 100 µM	–	> 100 µM	59.3 µM	31.4 µM	–	–	–	–
O=C(c1ccc(Cl)cc1)N(C(=S)OCCOc1ccccc1)c1ccccc1	30.9 µM	42.2 µM	32.4 µM	–	40.8 µM	36.4 µM	48.3 µM	45.7 µM	–	–	31.7 µM	–	–
